Experimental data: paper PMC12040169 (PLOS Biology, 2025)

Assay: in vitro
Conditions: human, hela cells, % viability

Cc1nc2n(CCN3CCCCC3)c3ccccc3n2c1C(=O)c1cccs1 [CBK278242B]
viability at 28.5 h, 10 µM: 88.6%

OC(COCc1ccc2c(c1)OCO2)CN1CCN(c2ccccn2)CC1 (stereo not shown) [CBK278246C]
viability at 28.5 h, 10 µM: 105%

Cc1cc(OCC(O)CN2CCN(CCO)CC2)cc(C)c1Cl (stereo not shown) [CBK278248C]
viability at 28.5 h, 10 µM: 92.7%

Cc1cc(OCC(O)CN2CCN(CCO)CC2)ccc1C(C)C (stereo not shown) [CBK278254C]
viability at 28.5 h, 10 µM: 89%

Cc1nn2c3ccccc3nc2n1CCN1CCCCC1 [CBK278256C]
viability at 28.5 h, 10 µM: 95.3%

O=C(CCN1CCN2CCCCC2C1)N1c2ccccc2Sc2ccc(Cl)cc21 (stereo not shown) [CBK278257F]
viability at 28.5 h, 10 µM: 86.3%

Cc1nc2n(CCN3CCCCC3)c3ccccc3n2n1 [CBK278258C]
viability at 28.5 h, 10 µM: 91.5%

O=C(c1ccccc1)c1cc[n+](CCC[n+]2ccc(C(=O)c3ccccc3)cc2)cc1 [CBK278270B]
viability at 28.5 h, 10 µM: 91.5%

O=[N+]([O-])c1cc([N+](=O)[O-])c(Nc2ccncc2)c([N+](=O)[O-])c1Nc1ccncc1 [CBK278276]
viability at 28.5 h, 10 µM: 96.1%

CC(O)CNCCNCc1cccs1 (stereo not shown) [CBK278279C]
viability at 28.5 h, 10 µM: 109%

CC(=C\C(=O)O)/C(=C\c1ccc(Br)cc1)C(=O)O [CBK278280N]
viability at 28.5 h, 10 µM: 88.1%

c1ccc2c(c1)nc1n2CCN1CCN1CCCCC1 [CBK278283C]
viability at 28.5 h, 10 µM: 98.5%

CC(=C\C(=O)O)/C(=C/c1ccc2ccccc2n1)C(=O)O [CBK278294N]
viability at 28.5 h, 10 µM: 87.7%

OC(COCc1ccccc1)CN1CCN(Cc2ccccc2)CC1 (stereo not shown) [CBK278297C]
viability at 28.5 h, 10 µM: 107%

CN1CCc2c1nc1ccccc1c2NC(=O)CN1CCCCCC1 [CBK278298G]
viability at 28.5 h, 10 µM: 90.6%

O=C(CN1CCN(C(c2ccccc2)c2ccccc2)CC1)Nc1c2c(nc3ccccc13)CCC2 [CBK278299G]
viability at 28.5 h, 10 µM: 92.7%

O=C(O)C(=N\Nc1ccccc1)/C(=N/Nc1ccccc1)C(=O)O [CBK278303N]
viability at 28.5 h, 10 µM: 100%

c1csc(CNCCCN2CCOCC2)c1 [CBK278305C]
viability at 28.5 h, 10 µM: 91.1%

Cc1ccc(Cl)cc1N1CCN(CC(O)COCc2ccc3c(c2)OCO3)CC1 (stereo not shown) [CBK278308C]
viability at 28.5 h, 10 µM: 106%

N=C(N)SCc1ccc(CSC(=N)N)cc1 [CBK278309C]
viability at 28.5 h, 10 µM: 84.5%

O=C(O)c1nsnc1C(=O)O [CBK278311K]
viability at 28.5 h, 10 µM: 114%

COc1ccc(-c2ccc(CNCCCN3CCOCC3)o2)cc1Cl [CBK278312C]
viability at 28.5 h, 10 µM: 103%

COc1ccc(CCc2nc(C)cc(CN(C)C)c2O)cc1 [CBK278313C]
viability at 28.5 h, 10 µM: 106%

N=C(N)SCCCCCSC(=N)N [CBK278314B]
viability at 28.5 h, 10 µM: 88.2%

OC(COCc1ccc(Cl)cc1)CN1CCN(c2cccc(Cl)c2)CC1 (stereo not shown) [CBK278315C]
viability at 28.5 h, 10 µM: 87.9%

CN(C)Cc1cc(CN(C)C)c(O)c(CCc2ccccc2)n1 [CBK278316C]
viability at 28.5 h, 10 µM: 90.9%

N=C(N)SCc1ncccc1O [CBK278318C]
viability at 28.5 h, 10 µM: 102%

O=S(=O)(O)c1cc(S(=O)(=O)O)c2cc(O)c(S(=O)(=O)O)cc2c1 [CBK278319N]
viability at 28.5 h, 10 µM: 96.7%

COc1ccc(CCc2nc(C)cc(CN(C)C)c2O)cc1OC [CBK278320C]
viability at 28.5 h, 10 µM: 89%

Cc1cc(NC(=O)CN2CCN(c3ccccc3)CC2)c2ccccc2n1 [CBK278322G]
viability at 28.5 h, 10 µM: 99.5%

COc1ccccc1N1CCN(CC(O)COCc2ccc3c(c2)OCO3)CC1 (stereo not shown) [CBK278323C]
viability at 28.5 h, 10 µM: 101%

CN1CCN(c2cc(CNC(=O)c3cc(=O)[nH]c4ccccc34)ccn2)CC1 [CBK279658]
viability at 28.5 h, 10 µM: 101%

CS(=O)(=O)N(CCc1ccccc1)CC(=O)O [CBK281244]
viability at 28.5 h, 10 µM: 109%

COc1ccccc1C1(O)CC2CCC(C1)N2 (stereo not shown) [CBK281369]
viability at 28.5 h, 10 µM: 81.9%

CC(=O)N1CC(C(=O)Nc2ncc(-c3ccccc3)n2C)C1 [CBK281373]
viability at 28.5 h, 10 µM: 96.1%

CCn1cncc1C(=O)N1CCCC1(C)C(=O)NC1CCCC1 (stereo not shown) [CBK281376]
viability at 28.5 h, 10 µM: 81.2%

Cc1nc(NC(=O)Cn2c3c(c4ccccc42)CCC3)nn1C [CBK281377]
viability at 28.5 h, 10 µM: 85.5%

O=C(NCC1(c2ccccc2F)CCCC1)c1cc[nH]c(=O)c1 [CBK281378]
viability at 28.5 h, 10 µM: 112%

CC(C)c1nccn1-c1ccc(NC(=O)CCCn2ccnc2)cc1 [CBK281380]
viability at 28.5 h, 10 µM: 93%

Cc1cc(S(=O)(=O)NCCn2nc(C)c(C)c2C)ccc1F [CBK281382]
viability at 28.5 h, 10 µM: 71.9%

Cc1ccc(CS(=O)(=O)NCCn2nc(C)c(C)c2C)cc1 [CBK281383]
viability at 28.5 h, 10 µM: 91.2%

CCn1cnc2cc(NC(=O)C3CC4C=CC3C43CC3)ccc21 (stereo not shown) [CBK281384]
viability at 28.5 h, 10 µM: 73.8%

Cc1ncncc1C(=O)N1CCc2sccc2C1c1ccccc1 (stereo not shown) [CBK281386]
viability at 28.5 h, 10 µM: 113%

COc1ccc2[nH]cc(C(=O)NCCn3nc(C)c(C)c3C)c2c1 [CBK281389]
viability at 28.5 h, 10 µM: 88.2%

CCn1c(CNC(=O)C(C)Cn2cc(Cl)cn2)nc2ccccc21 (stereo not shown) [CBK281392]
viability at 28.5 h, 10 µM: 91.9%

CCn1c(CNC(=O)c2cc(C(C)C)on2)nc2ccccc21 [CBK281393]
viability at 28.5 h, 10 µM: 94.2%

CCn1c(CNC(=O)c2cn3ccc(C)cc3n2)nc2ccccc21 [CBK281394]
viability at 28.5 h, 10 µM: 91.2%

CCn1c(CNC(=O)c2cn3cc(C)ccc3n2)nc2ccccc21 [CBK281395]
viability at 28.5 h, 10 µM: 89.4%

O=C(Nc1ccc(Cn2cncn2)cc1)C1CC2C=CC1C21CC1 (stereo not shown) [CBK281399]
viability at 28.5 h, 10 µM: 88.2%

CCN1CC(C(=O)NCc2ccc(CN3CCCCC3)cc2)CC1=O (stereo not shown) [CBK281400]
viability at 28.5 h, 10 µM: 87.3%

CCn1cnc2cc(NC(=O)c3ccc(C)n(C)c3=O)ccc21 [CBK281402]
viability at 28.5 h, 10 µM: 106%

Cc1nc(-c2ccc(NC(=O)CC(C)n3cccn3)cc2)cs1 (stereo not shown) [CBK281403]
viability at 28.5 h, 10 µM: 98.4%

N[C@@H]1CCCN(C(=O)c2ccccc2)[C@H]1c1ccccc1F [CBK281405]
viability at 28.5 h, 10 µM: 106%

COc1ccc(C(C)NC(=O)c2c3c(nn2C)CCCC3)cc1F (stereo not shown) [CBK281406]
viability at 28.5 h, 10 µM: 106%

O=C(CN1CCCCCC1=O)Nc1nc(-c2ccccc2F)cs1 [CBK281408]
viability at 28.5 h, 10 µM: 104%

Cc1nccn1-c1ccc(NC(=O)c2ccn(C(F)F)n2)cc1 [CBK281410]
viability at 28.5 h, 10 µM: 110%

Cc1nn(C)cc1-c1cc(C(=O)Nc2ccccc2C2CC2)on1 [CBK281412]
viability at 28.5 h, 10 µM: 95.9%

CC(NC(=O)c1ccc(=O)n(C)n1)c1ccc2c(c1)CCCC2 (stereo not shown) [CBK281416]
viability at 28.5 h, 10 µM: 91.9%

Cc1nn(CCC(=O)NC(C)Cc2ccccn2)c(C)c1Cl (stereo not shown) [CBK281419]
viability at 28.5 h, 10 µM: 97.1%

Cc1noc(C)c1CC(=O)NCc1ccc(CN2CCCCC2)cc1 [CBK281422]
viability at 28.5 h, 10 µM: 93.6%

Cc1ccc2oc(C(=O)N3CCN(CC(=O)N(C)C)CC3)c(C)c2c1 [CBK281423]
viability at 28.5 h, 10 µM: 94.2%

COc1ccc2c(c1)c(C)c(C(=O)NC(C)Cc1ccccn1)n2C (stereo not shown) [CBK281425]
viability at 28.5 h, 10 µM: 98.6%

OC(CN1CCC(Oc2ccccc2F)CC1)c1cccs1 (stereo not shown) [CBK281433]
viability at 28.5 h, 10 µM: 95.2%

Cn1nc(C(=O)NCC2(c3cccc(F)c3)CCCC2)ccc1=O [CBK281437]
viability at 28.5 h, 10 µM: 86.9%

Cc1nc(C)c(CC(=O)NC(c2ccncc2)c2cccs2)s1 (stereo not shown) [CBK281439]
viability at 28.5 h, 10 µM: 96.6%

O=C(C1CC2C=CC1C21CC1)N1CCN(Cc2ccccn2)CC1 (stereo not shown) [CBK281443]
viability at 28.5 h, 10 µM: 86.3%

CCc1nccn1CCC(=O)Nc1ccc2c(c1)CCN2C(C)=O [CBK281446]
viability at 28.5 h, 10 µM: 90.9%

CC(NC(=O)CN1CCCCCC1=O)c1cc2cc(Cl)ccc2o1 (stereo not shown) [CBK281448]
viability at 28.5 h, 10 µM: 87.7%

Cc1cc(C)n(Cc2cccc(C(=O)NC(C)Cc3ccccn3)c2)n1 (stereo not shown) [CBK281449]
viability at 28.5 h, 10 µM: 102%

Cc1nc2ccc(Cl)cn2c1CN1CCN(C2CCCC2)C(=O)C1 [CBK281452]
viability at 28.5 h, 10 µM: 84%

Cc1nn(-c2ccc(F)cc2)c(C)c1CNC(=O)CCC1CCCO1 (stereo not shown) [CBK281456]
viability at 28.5 h, 10 µM: 86.8%

COc1ccc(CCn2cncc2-c2cnn(C)c2)cc1C [CBK281457]
viability at 28.5 h, 10 µM: 107%

Cc1ccc(CS(=O)(=O)NCc2ccccc2-n2ccnc2)cc1 [CBK281462]
viability at 28.5 h, 10 µM: 96.5%

c1ccc(-n2cc(-c3cncn3CCCN3CCCCC3)cn2)cc1 [CBK281465]
viability at 28.5 h, 10 µM: 92.4%

Cc1noc(C)c1CC(=O)NC(C)c1nc2ccccc2s1 (stereo not shown) [CBK281467]
viability at 28.5 h, 10 µM: 107%

O=C(c1cc2c(F)cccc2[nH]1)N1CCC(Oc2cccnc2)CC1 [CBK281468]
viability at 28.5 h, 10 µM: 103%

CC(=O)N1CCc2cc(NC(=O)C3CC4C=CC3C43CC3)ccc21 (stereo not shown) [CBK281472]
viability at 28.5 h, 10 µM: 79.8%

Cc1ccc(C)c(C(NC(=O)CCCn2ccnc2)c2ccncc2)c1 (stereo not shown) [CBK281476]
viability at 28.5 h, 10 µM: 96.1%

Cc1cc(S(=O)(=O)NCc2ccccc2-n2ccnc2)ccc1F [CBK281477]
viability at 28.5 h, 10 µM: 92.1%

Cc1nn(C)c(C)c1CN(C(=O)C(C)Oc1cccc(F)c1)C1CC1 (stereo not shown) [CBK281479]
viability at 28.5 h, 10 µM: 93.7%

Cc1nn(C)c(C)c1CN(C(=O)C(C)Oc1ccccc1F)C1CC1 (stereo not shown) [CBK281480]
viability at 28.5 h, 10 µM: 86.6%

Cc1nn(CC(=O)NC(C)c2cccnc2)c(C)c1C (stereo not shown) [CBK281489]
viability at 28.5 h, 10 µM: 102%

c1ccc(Cn2cncc2-c2cncn2CCCN2CCCCC2)cc1 [CBK281490]
viability at 28.5 h, 10 µM: 114%

Cc1nn(C)cc1-c1cncn1CCCC(C)(C)CO [CBK281492]
viability at 28.5 h, 10 µM: 86.1%

CC1CCN(Cc2c(-c3cccnc3)[nH]c3cccnc23)CC1 [CBK281494]
viability at 28.5 h, 10 µM: 98.8%

c1nn(C2CCCCC2)cc1-c1cncn1CCCN1CCCCC1 [CBK281495]
viability at 28.5 h, 10 µM: 97.5%

CCCn1nc(C)c(-c2cncn2CCCN2CCCCC2)c1C [CBK281496]
viability at 28.5 h, 10 µM: 100%

Cc1cccc(OCCn2cncc2-c2cnn(C)c2)c1C [CBK281497]
viability at 28.5 h, 10 µM: 99.5%

Cc1ccc2oc(C(=O)N3CCC(Oc4cccnc4)CC3)cc2c1 [CBK281498]
viability at 28.5 h, 10 µM: 106%

O=C(c1cccc(-c2ccc(F)cc2)c1)N1CC(O)C1 [CBK281499]
viability at 28.5 h, 10 µM: 100%

Cc1nn(C)cc1-c1cncn1CCOc1ccc(Cl)cc1 [CBK281508]
viability at 28.5 h, 10 µM: 87.5%

CCOc1ccc2c(c1)cc(C(=O)N(C)CC(F)(F)F)n2C [CBK281509]
viability at 28.5 h, 10 µM: 80.7%

CC(CCc1ccc(F)cc1)NC(=O)c1cc2c([nH]c1=O)CCC2 (stereo not shown) [CBK281512]
viability at 28.5 h, 10 µM: 91.9%

CN(CCN1CCCCC1)C(=O)Cn1cnc2ccccc21 [CBK281515]
viability at 28.5 h, 10 µM: 90.6%
